Experimental data as given in publication PMC12669672, “Structural insights into selective and dual antagonism of EP2 and EP4 prostaglandin receptors” (The EMBO Journal, 2025).
Several values for one entry are separate records, joined by “and”; a condition that tells them apart may be missing. Identical values can stand only once. Like-named read-outs stand apart in the source and are kept apart here.

Columns and labels:
Assay type in all cases: cell-based
[1] = biological target: T1, EP4 V320A (Homo sapiens, UniProt P35408, V320A); test: GloSensor cAMP assay, antagonism of PGE2-induced cAMP; conditions: TG6-129, V320A
T1 construct: The full-length EP2 or EP4 was cloned into the pcDNA3.1 vector (Invitrogen), incorporating an N-terminal FLAG tag; expressed in transfected cells; host or cells: AD293

[2] = biological target: T2, EP4 V72A (Homo sapiens, UniProt P35408, V72A); test: as above
T2 construct: The full-length EP2 or EP4 was cloned into the pcDNA3.1 vector; FLAG (N); expressed in transfected cells; host or cells: AD293 cells

[3] = biological target: T3, constitutively active EP2 W186A (Homo sapiens, UniProt P43116, W186A); test: GloSensor cAMP assay, inhibition of constitutive activity
T3 construct: The full-length EP2 or EP4 was cloned into the pcDNA3.1 vector; FLAG (N); expressed in transfected cells; host or cells: AD293 cells
In short: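 Read-out is GloSensor luminescence from AD293 cells co-expressing FLAG-tagged EP2 variant and GloSensor22F biosensor, transfected at a 1:1 plasmid ratio. Cells were plated at 4000 per well in CO2-independent medium containing 2% cAMP reagent, incubated 1 h at 37 °C, then read.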

[4] = biological target: T4, constitutively active EP4 V72A (Homo sapiens, UniProt P35408, V72A); test: as above
T4 construct: The full-length EP2 or EP4 was cloned into the pcDNA3.1 vector (Invitrogen), incorporating an N-terminal FLAG tag; expressed in transfected cells; host or cells: AD293

[5] = biological target: T5, EP2-I85V (Homo sapiens, UniProt P43116, I85V); test: GloSensor cAMP assay, antagonism of PGE2-induced cAMP, chimeric studies; conditions: single experiments 1st-3rd
T5 construct: The full-length EP2 or EP4 was cloned into the pcDNA3.1 vector; FLAG (N); expressed in transfected cells; host or cells: AD293 cells
Protocol: (§1) The full-length EP2 or EP4 was cloned into the pcDNA3.1 vector (Invitrogen), incorporating an N-terminal FLAG tag. AD293 cells were seeded in six-well plates containing DMEM supplemented with 10% dialyzed FBS 1 day prior to transfection. Following overnight growth, cells were transfected with a 1:1 ratio of receptor construct and GloSensor22F cAMP biosensor (Promega) plasmids.
(§2) Twenty-four hours post-transfection, the cells were transferred to CO2-independent media containing 2% GloSensor cAMP Reagent (Promega) and distributed into 384-well assay plates at a density of 4000 cells per well in 10 μL. […] The plates were then incubated at 37 °C for an additional hour before luminescence measurements were taken using an EnVision plate reader.
(§3) Data analysis was performed using GraphPad Prism software v8.0.1. A nonlinear regression analysis, employing a sigmoidal dose–response model, was conducted to determine the Emax values and half-maximum inhibitory concentrations (IC50) for each compound tested.

[6] = biological target: T6, EP2-L301I (Homo sapiens, UniProt P43116, L301I); test: as above; conditions: single experiments 1st-3rd
T6 construct: The full-length EP2 or EP4 was cloned into the pcDNA3.1 vector; FLAG (N); expressed in transfected cells; host or cells: AD293 cells
Protocol: as §1, §2, §3

[7] = biological target: T7, EP2-M116L (Homo sapiens, UniProt P43116, M116L); test: as above; conditions: single experiments 1st-3rd
T7 construct: The full-length EP2 or EP4 was cloned into the pcDNA3.1 vector; FLAG (N); expressed in transfected cells; host or cells: AD293 cells
Protocol: as §1, §2, §3

[8] = no PGE2, pIC50 mutant - pIC50 WT, mean
[9] = 1 h, ligand log([M]) -6, Fig. S7B, read-out: % cAMP activity (normalized to WT)
[10] = 1 h, ligand log([M]) -10, Fig. S7B, read-out: % cAMP activity (normalized to WT)
[11] = 1 h, ligand log([M]) -11, Fig. S7B, read-out: % cAMP activity (normalized to WT)
[12] = 1 h, ligand log([M]) -5, Fig. S7B, read-out: % cAMP activity (normalized to WT)
[13] = 1 h, ligand log([M]) -12, Fig. S7B, read-out: % cAMP activity (normalized to WT)

T7 sequence (P43116 whole entry M116L): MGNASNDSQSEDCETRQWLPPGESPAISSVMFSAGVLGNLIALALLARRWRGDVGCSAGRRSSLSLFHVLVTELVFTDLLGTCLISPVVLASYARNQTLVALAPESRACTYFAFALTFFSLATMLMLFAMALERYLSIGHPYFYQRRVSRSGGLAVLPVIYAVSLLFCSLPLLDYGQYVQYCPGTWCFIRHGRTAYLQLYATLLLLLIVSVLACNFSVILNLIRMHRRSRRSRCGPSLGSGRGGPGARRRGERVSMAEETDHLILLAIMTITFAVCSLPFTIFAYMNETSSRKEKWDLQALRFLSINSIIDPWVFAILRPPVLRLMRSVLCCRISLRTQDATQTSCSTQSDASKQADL
T5 sequence (P43116 whole entry I85V): as the sequence (P43116 whole entry M116L) above, with I85V, L116M counted along it
T3 sequence (P43116 whole entry W186A): as the sequence (P43116 whole entry M116L) above, with L116M, W186A counted along it
T1 sequence (P35408 whole entry V320A): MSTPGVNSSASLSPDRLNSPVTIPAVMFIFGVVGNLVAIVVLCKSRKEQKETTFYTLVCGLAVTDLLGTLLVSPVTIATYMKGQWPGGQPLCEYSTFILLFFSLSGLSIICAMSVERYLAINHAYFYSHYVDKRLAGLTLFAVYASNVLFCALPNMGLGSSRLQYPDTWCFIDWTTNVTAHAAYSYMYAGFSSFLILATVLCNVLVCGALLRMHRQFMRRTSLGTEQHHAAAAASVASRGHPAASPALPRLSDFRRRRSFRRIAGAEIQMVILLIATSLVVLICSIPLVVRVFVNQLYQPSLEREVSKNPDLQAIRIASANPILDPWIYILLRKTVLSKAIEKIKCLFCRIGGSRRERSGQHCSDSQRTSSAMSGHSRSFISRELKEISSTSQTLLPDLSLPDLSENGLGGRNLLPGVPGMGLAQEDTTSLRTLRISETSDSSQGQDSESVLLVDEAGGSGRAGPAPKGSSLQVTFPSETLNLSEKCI
T2 sequence (P35408 whole entry V72A): as the sequence (P35408 whole entry V320A) above, with V72A, A320V counted along it
T4 sequence (P35408 whole entry V72A): as the sequence (P35408 whole entry V320A) above, with V72A, A320V counted along it
T6 sequence (P43116 whole entry L301I): as the sequence (P43116 whole entry M116L) above, with L116M, L301I counted along it

CCc1nnc(NS(=O)(=O)c2ccc(NC(=S)NC(=O)/C=C/c3ccc(F)cc3)cc2)s1 [TG6-129]
cAMP activity (∆pIC50 from EP4 WT) ([1]; Mean): -0.111
cAMP activity (∆pIC50 from EP4 WT) ([1]; single experiments 1st-3rd): -0.105 and -0.202 and -0.027
IC50 [2]: 18.2 µM
remaining activity at 100 µM ([2]; 1 h, TG6-129 log([M]) -4.00, read-out: % cAMP activity (normalized to WT)): 12.5%
remaining activity at […] ([2]; 1 h, TG6-129 log([M]) -4.70, read-out: % cAMP activity (normalized to WT)): 22.1%
remaining activity at […] ([2]; 1 h, TG6-129 log([M]) -5.40, read-out: % cAMP activity (normalized to WT)): 49.5%
remaining activity at […] ([2]; 1 h, TG6-129 log([M]) -6.10, read-out: % cAMP activity (normalized to WT)): 51.9%
remaining activity at 0.1585 µM ([2]; 1 h, TG6-129 log([M]) -6.80, read-out: % cAMP activity (normalized to WT)): 46%
remaining activity at 0.03236 µM ([2]; 1 h, TG6-129 log([M]) -7.49, read-out: % cAMP activity (normalized to WT)): 55.5%
remaining activity at 0.006457 µM ([2]; 1 h, TG6-129 log([M]) -8.19, read-out: % cAMP activity (normalized to WT)): 65.3%
remaining activity at 0.001288 µM ([2]; 1 h, TG6-129 log([M]) -8.89, read-out: % cAMP activity (normalized to WT)): 49%
cAMP activity (∆pIC50 from EP4 WT) ([2]; TG6-129, V72A, Mean): -0.291
IC50 [3]: 3.63 µM
remaining activity at 0.1 µM ([3]; 1 h, TG6-129 log([M]) -7, EP2-W186A, read-out: % cAMP activity (normalized to WT)): 91.6%
remaining activity at 0.0001 µM ([3]; 1 h, TG6-129 log([M]) -10, EP2-W186A, read-out: % cAMP activity (normalized to WT)): 92.4%
remaining activity at 10 pM ([3]; 1 h, TG6-129 log([M]) -11, EP2-W186A, read-out: % cAMP activity (normalized to WT)): 99.9%
remaining activity at 1 pM ([3]; 1 h, TG6-129 log([M]) -12, EP2-W186A, read-out: % cAMP activity (normalized to WT)): 97.8%
TG6-129 cAMP activity (∆pIC50 from EP2 WT), Mean ([3]; W186A, Mean): -1.465
ΔpIC50 [3, 8]: -1.47 ± 0.16
IC50 [4]: 18.6 µM
remaining activity at 100 µM ([4]; 1 h, TG6-129 log([M]) -4.00, EP4-V72A, read-out: % cAMP activity (normalized to WT)): 9.67%
remaining activity at […] ([4]; 1 h, TG6-129 log([M]) -4.70, EP4-V72A, read-out: % cAMP activity (normalized to WT)): 26.1%
remaining activity at […] ([4]; 1 h, TG6-129 log([M]) -5.40, EP4-V72A, read-out: % cAMP activity (normalized to WT)): 41.3%
remaining activity at […] ([4]; 1 h, TG6-129 log([M]) -6.10, EP4-V72A, read-out: % cAMP activity (normalized to WT)): 40.6%
remaining activity at 0.1585 µM ([4]; 1 h, TG6-129 log([M]) -6.80, EP4-V72A, read-out: % cAMP activity (normalized to WT)): 44.9%
remaining activity at 0.03236 µM ([4]; 1 h, TG6-129 log([M]) -7.49, EP4-V72A, read-out: % cAMP activity (normalized to WT)): 51.4%
remaining activity at 0.006457 µM ([4]; 1 h, TG6-129 log([M]) -8.19, EP4-V72A, read-out: % cAMP activity (normalized to WT)): 46.4%
remaining activity at 0.001288 µM ([4]; 1 h, TG6-129 log([M]) -8.89, EP4-V72A, read-out: % cAMP activity (normalized to WT)): 40.4%
TG6-129 cAMP activity (∆pIC50 from EP4 WT), Mean ([4]; V72A, Mean): -0.480
TG6-129 cAMP activity (∆pIC50 from EP4 WT) ([4]; V72A, single experiments 1st-3rd): -0.475 and -0.451 and -0.514
ΔpIC50 [4, 8]: -0.48 ± 0.02
remaining activity at 1 µM [5, 9]: 12.2%
remaining activity at 0.0001 µM [5, 10]: 102%
remaining activity at 10 pM [5, 11]: 108%
cAMP activity (∆pIC50 from EP2 WT) ([5]; Appendix Fig. S7A): -0.555 and -0.639 and -0.556
remaining activity at 10 µM [6, 12]: 16.7%
remaining activity at 1 µM [6, 9]: 17.9%
remaining activity at 0.1 µM ([6]; 1 h, ligand log([M]) -7, Fig. S7B, read-out: % cAMP activity (normalized to WT)): 74.8%
remaining activity at 0.0001 µM [6, 10]: 111%
remaining activity at 10 pM [6, 11]: 123%
remaining activity at 1 pM [6, 13]: 120%
cAMP activity (∆pIC50 from EP2 WT) ([6]; Appendix Fig. S7A): -0.046 and -0.334 and -0.171
remaining activity at 10 µM [7, 12]: 12.1%
remaining activity at 0.0001 µM [7, 10]: 107%
remaining activity at 10 pM [7, 11]: 124%
remaining activity at 1 pM [7, 13]: 116%
cAMP activity (∆pIC50 from EP2 WT) ([7]; Appendix Fig. S7A): -0.454 and -0.463 and -0.341
